From ChEMBL document CHEMBL4390660, “Synthesis and biological evaluation of marine alkaloid-oriented β-carboline analogues” (Eur J Med Chem, 2019) come the findings set out here.

Test [1] has as its system HepG2. Description: Cytotoxicity against human HepG2 cells assessed as growth inhibition at 40 ug/mL after 72 hrs by MTT assay. The format is functional. The following applies: HepG2, 72 h, read-out: GI.
In test [2] the test system is SGC-7901. The test is described as follows: Cytotoxicity against human SGC7901 cells assessed as growth inhibition at 40 ug/mL after 72 hrs by MTT assay. Conditions: SGC-7901, 72 h, read-out: GI. In kind it is functional.
The nature of test [3]: Cytotoxicity against African green monkey MARC145 cells assessed as growth inhibition at 40 ug/mL after 72 hrs by MTT assay. The format is functional. Conditions: Chlorocebus aethiops, MARC145, 72 h; read-out: GI.
The test system of test [4] is SGC-7901. Description: Cytotoxicity against human SGC7901 cells assessed as growth inhibition after 72 hrs by MTT assay. The format is functional, cell-based. Conditions: SGC-7901, 72 h.
Test [5] is described as follows: Cytotoxicity against African green monkey MARC145 cells assessed as growth inhibition after 72 hrs by MTT assay. Conditions: Chlorocebus aethiops, MARC145, 72 h. The format is functional, cell-based.
The nature of test [6]: Cytotoxicity against human A875 cells assessed as growth inhibition at 40 ug/mL after 72 hrs by MTT assay. The format is functional. The following applies: A875, 72 h, read-out: GI.
The test system of test [7] is HepG2. Description: Cytotoxicity against human HepG2 cells assessed as growth inhibition after 72 hrs by MTT assay. In kind it is functional, cell-based. Conditions: HepG2, 72 h.
Test [8] is described as follows: Cytotoxicity against human A875 cells assessed as growth inhibition after 72 hrs by MTT assay. The format is functional, cell-based. The following applies: A875, 72 h.

pIC50: −log10 of the molar value.

In the case of `O=C(NCCc1cccc(O)c1)c1cc2c([nH]c3ccccc32)c(C(=O)c2c[nH]c3ccccc23)n1`, the inhibition of growth at 40 µg/mL amounted to 86.9% in the test on HepG2 [1], 88.3% with SGC-7901 [2], 83.2% in test [3] and 87.5% in test [6]. Further, the pIC50 in the test with SGC-7901 [4] was 4.75; in test [5] it was 4.86; with HepG2 [7] it was 5.06; in test [8] it was 4.92.

`O=C(c1c[nH]c2ccccc12)c1nccc2c1[nH]c1ccccc12`: the inhibition of growth at 40 µg/mL in the test with HepG2 [1] turned out to be 30.5%; in the test with SGC-7901 [2], 43.2%; in test [3], 34.6%; in test [6] it was 59.1%. The pIC50 in the test with SGC-7901 [4] was < 3.92; in test [5], < 3.92; in the test with HepG2 [7] it was < 3.92; in test [8] it was 4.12.

Turning to `O=C(NCCc1ccccc1)c1cc2c([nH]c3ccccc32)c(C(=O)c2c[nH]c3ccccc23)n1`, the inhibition of growth at 40 µg/mL was found to be 82.3% in the test with HepG2 [1], 84.5% in the test on SGC-7901 [2], 79.8% in test [3] and 77.1% in test [6]. The pIC50 in the test with SGC-7901 [4] is 4.64; in test [5], 4.59; in the test with HepG2 [7], 4.70; in test [8], 4.35.

On to `COc1ccc(NC(=O)c2cc3c([nH]c4ccccc43)c(C(=O)c3c[nH]c4ccccc34)n2)cc1`, for which the inhibition of growth at 40 µg/mL in the test with HepG2 [1] was found to be 44.8%; in the test on SGC-7901 [2] it was 41.2%; in test [3], 42%; in test [6], 72.1%. For the same molecule, the pIC50 in the test on SGC-7901 [4] is < 4.07; in test [5] it was < 4.07; in the test on HepG2 [7], < 4.07; in test [8], 4.18.

Turning to `COc1ccc(CCNC(=O)c2cc3c([nH]c4ccccc43)c(C(=O)c3c[nH]c4ccccc34)n2)cc1OC`, the inhibition of growth at 40 µg/mL in the test on HepG2 [1] is 31.7%; in the test on SGC-7901 [2], 22.1%; in test [3], 38.4%; in test [6], 0%. Also, the negative-log IC50 (pIC50) (in the test with SGC-7901 [4]; in test [5]; with HepG2 [7]; in test [8]) was < 4.12 in each case.

In the case of `O=C(NCc1ccccc1)c1cc2c([nH]c3ccccc32)c(C(=O)c2c[nH]c3ccccc23)n1`, the inhibition of growth at 40 µg/mL in the test with HepG2 [1] came out at 77.3%; in the test on SGC-7901 [2], 79%; in test [3] it was 67.4%; in test [6] it was 75.5%. In addition, the negative logarithm of the IC50 (pIC50) with SGC-7901 [4] is 4.40; in test [5] it was 4.37; in the test with HepG2 [7], 4.44; in test [8], 4.25.

On to `O=C(NCCc1c[nH]c2ccccc12)c1cc2c([nH]c3ccccc32)c(C(=O)c2c[nH]c3ccccc23)n1`, for which the inhibition of growth at 40 µg/mL in the test on HepG2 [1] turned out to be 74.4%; with SGC-7901 [2], 76.6%; in test [3], 67%; in test [6], 77.8%. Also, the pIC50 in the test on SGC-7901 [4] was 4.41; in test [5], 4.36; with HepG2 [7], 4.39; in test [8], 4.30.

Turning to `CS(=O)(=O)CCNC(=O)c1cc2c([nH]c3ccccc32)c(C(=O)c2c[nH]c3ccccc23)n1`, the inhibition of growth at 40 µg/mL with HepG2 [1] came to 87.3%; with SGC-7901 [2] it was 88.5%; in test [3] it was 90.2%; in test [6], 87.9%. Also, the pIC50 in the test on SGC-7901 [4] was 5.17; in test [5] it was 5.14; with HepG2 [7], 5.11; in test [8], 5.07.

Regarding `Cc1ccc(CNC(=O)c2cc3c([nH]c4ccccc43)c(C(=O)c3c[nH]c4ccccc34)n2)cc1`, the inhibition of growth at 40 µg/mL with HepG2 [1] was determined as 63.9%; with SGC-7901 [2] it was 64%; in test [3], 55%; in test [6], 27%. Further, the negative-log IC50 (pIC50) is 4.18 in the test with SGC-7901 [4], 4.14 in test [5], 4.18 with HepG2 [7] and < 4.07 in test [8].

As to `O=C(O)c1cc2c([nH]c3ccccc32)c(C(=O)c2c[nH]c3ccccc23)n1`, the inhibition of growth at 40 µg/mL turned out to be 78.4% in the test on HepG2 [1], 63% with SGC-7901 [2], 72% in test [3] and 72.2% in test [6]. Besides, the pIC50 is 4.17 in the test on SGC-7901 [4], 4.38 in test [5], 4.29 in the test with HepG2 [7] and 4.31 in test [8].

With `COC(=O)c1cc2c([nH]c3ccccc32)c(C(=O)c2c[nH]c3ccccc23)n1`, the inhibition of growth at 40 µg/mL is 62.7% in the test on HepG2 [1], 48.6% in the test on SGC-7901 [2], 35.9% in test [3] and 36.8% in test [6]. Also, the pIC50 (with SGC-7901 [4]; in test [5]; in the test on HepG2 [7]; in test [8]) was < 4.00 in each case.

With `O=C(NCCc1ccc(F)cc1)c1cc2c([nH]c3ccccc32)c(C(=O)c2c[nH]c3ccccc23)n1`, the inhibition of growth at 40 µg/mL was found to be 72.4% in the test on HepG2 [1], 76.7% with SGC-7901 [2], 63% in test [3] and 33.9% in test [6]. The pIC50 in the test with SGC-7901 [4] was 4.47; in test [5], 4.31; in the test with HepG2 [7], 4.41; in test [8] it was < 4.10.

In the case of `COC(=O)C(CO)NC(=O)c1cc2c([nH]c3ccccc32)c(C(=O)c2c[nH]c3ccccc23)n1` (stereo not given), the inhibition of growth at 40 µg/mL was 79% in the test with HepG2 [1], 82.7% in the test on SGC-7901 [2], 83.2% in test [3] and 83.9% in test [6]. In addition, the negative-log IC50 (pIC50) was 4.84 in the test with SGC-7901 [4], 4.79 in test [5], 5.00 in the test with HepG2 [7] and 4.98 in test [8].

For `O=C(NCc1ccccn1)c1cc2c([nH]c3ccccc32)c(C(=O)c2c[nH]c3ccccc23)n1`, the inhibition of growth at 40 µg/mL is 79.6% with HepG2 [1], 69.5% in the test on SGC-7901 [2], 66.2% in test [3] and 70.7% in test [6]. The negative-log IC50 (pIC50) is 4.36 with SGC-7901 [4], 4.47 in test [5], 4.58 with HepG2 [7] and 4.37 in test [8].

On to `COc1cccc(CCNC(=O)c2cc3c([nH]c4ccccc43)c(C(=O)c3c[nH]c4ccccc34)n2)c1`, for which the inhibition of growth at 40 µg/mL was 40.1% in the test on HepG2 [1], 39.3% with SGC-7901 [2], 48.4% in test [3] and 16.6% in test [6]. The pIC50 (in the test with SGC-7901 [4]; in test [5]; in the test with HepG2 [7]; in test [8]) was < 4.10 throughout.

As for `COc1cc(CNC(=O)c2cc3c([nH]c4ccccc43)c(C(=O)c3c[nH]c4ccccc34)n2)ccc1O`, the inhibition of growth at 40 µg/mL stood at 80.9% with HepG2 [1], 83.1% with SGC-7901 [2], 79.1% in test [3] and 81.7% in test [6]. For the same molecule, the negative-log IC50 (pIC50) with SGC-7901 [4] is 4.79; in test [5] it was 4.66; with HepG2 [7] it was 4.96; in test [8] it was 5.07.

Regarding `O=C(Nc1ccc(F)cc1)c1cc2c([nH]c3ccccc32)c(C(=O)c2c[nH]c3ccccc23)n1`, the inhibition of growth at 40 µg/mL came out at 34.8% in the test with HepG2 [1], 34% in the test on SGC-7901 [2], 47.5% in test [3] and 20.7% in test [6]. Moreover, the negative logarithm of the IC50 (pIC50) (in the test with SGC-7901 [4]; in test [5]; in the test on HepG2 [7]; in test [8]) was < 4.07 in each case.

Take `O=C(NCc1cccnc1)c1cc2c([nH]c3ccccc32)c(C(=O)c2c[nH]c3ccccc23)n1`: the inhibition of growth at 40 µg/mL in the test on HepG2 [1] is 82.8%; with SGC-7901 [2], 70.1%; in test [3] it was 73.8%; in test [6] it was 74.2%. The negative-log IC50 (pIC50) is 4.48 with SGC-7901 [4], 4.68 in test [5], 4.73 with HepG2 [7] and 4.60 in test [8].

As for `O=c1[nH]cc(F)c(=O)[nH]1` [FLUOROURACIL], the inhibition of growth at 40 µg/mL in the test with HepG2 [1] amounted to 72.6%; in the test with SGC-7901 [2], 79.9%; in test [3], 66.7%; in test [6] it was 61%. The pIC50 in the test on SGC-7901 [4] is 4.27; in test [5] it was 3.94; with HepG2 [7], 4.18; in test [8], 4.21.

Regarding `O=C(NCc1ccc(F)cc1)c1cc2c([nH]c3ccccc32)c(C(=O)c2c[nH]c3ccccc23)n1`, the inhibition of growth at 40 µg/mL turned out to be 73.9% in the test on HepG2 [1], 78.8% in the test with SGC-7901 [2], 63.8% in test [3] and 68.1% in test [6]. Also, the negative logarithm of the IC50 (pIC50) was 4.46 in the test on SGC-7901 [4], 4.26 in test [5], 4.41 in the test on HepG2 [7] and 4.20 in test [8].
